Assay results published in patent US9290476B2, “Methylene linked quinolinyl modulators of RORγt” (Janssen Pharmaceutica NV, priority 2012, dated 2016).
Structures can show the parent of a compound that is named as a salt.

Tests used:
human RORγt LBD = human RORγt LBD (Homo sapiens (Human), UniProt P51449); test: RORγt reporter assay (GAL4-RORγt LBD luciferase in HEK293T cells); type: cell-based; details: for IC50: 24 hours compound treatment; for inhibition at 6 µM: HEK-293T, read-out: RORγt reporter Assay, % inhibition @ 6 μM, HEK293T cells, 6 μM
Description: A reporter assay was used to test functional activity of RORγt modulatory compounds on transcriptional activation driven by the RORγt LBD. Cells used in the assay were co-transfected with two constructs. The first construct, pBIND-RORγt LBD, contained the wild type human RORγt LBD fused to the DNA binding domain of the GAL4 protein. The second construct, pGL4.31 (Promega Cat no. C935A), contained multiple GAL4 responsive DNA elements upstream of firefly luciferase. […] The mutant construct was called pBIND-RORγt-AF2.
The pBIND vector contains the GAL4 DNA Binding Domain (GAL4 DBD) and the renilla luciferase gene under control of the SV40 promoter. Renilla luciferase expression serves as a control for transfection efficiency and cell viability.
The reporter assay was performed by transiently transfecting HEK293T cells with 5 ng of pBIND-RORγt LBD or pBIND-RORγt LBD-AF2 and 5 μg pGL4.31 (Promega Cat no. C935A) using Fugene 6 ([…] Cat no. E2691) at a 1:6 ratio of DNA: Fugene 6 in a T-75 flask in which cells were at least 80% confluent. Twenty four hours after bulk transfection, cells were plated into 96-well plates at 50,000 cells/well in phenol-red free DMEM containing 5% Lipid Reduced FCS and Pen/Strep. Six hours after plating, cells were treated with compounds for 24 hours. Media was removed and cells were lysed with 50 μL 1× Glo Lysis Buffer (Promega). Dual Glo Luciferase Reagent (50 μL/well) was then added and firefly luciferase luminescence was read on an Envision after a ten minute incubation. Finally, Stop and Glo reagent (50 μL/well) was added and renilla luciferase luminescence was read on an Envision after a ten minute incubation. To calculate the effect of compounds on RORγt activity, the ratio of firefly to renilla luciferase was determined and plotted against compound concentration. Agonist compounds increase RORγt-driven luciferase expression, and antagonist or inverse agonist compounds decrease luciferase expression.

[1] = biological target: human RORγt ligand binding domain (RORγt LBD) (Homo sapiens (Human), UniProt P51449); test: RORγt ThermoFluor assay (thermal shift binding affinity); details: estimated from thermal shift
Procedure: This approach is applicable to a wide variety of systems, and rigorous in theoretical interpretation through quantitation of equilibrium binding constants (KD).
The shift in the melting point described as a ΔTm is proportional to the concentration and affinity of the ligand.
RORγt ThermoFluor® Assay Construct
Protein and compound solutions are dispensed into black 384-well polypropylene PCR microplates (Abgene) and overlayed with silicone oil (1 μL, Fluka, type DC 200) to prevent evaporation.
Bar-coded assay plates are robotically loaded onto a thermostatically controlled PCR-type thermal block and then heated at a typical ramp-rate of 1° C./min for all experiments. Fluorescence was measured by continuous illumination with UV light (Hamamatsu LC6) supplied via fiber optic and filtered through a band-pass filter (380-400 nm; >6 OD cutoff). Fluorescence emission of the entire 384-well plate was detected by measuring light intensity using a CCD camera (Sensys, Roper Scientific) filtered to detect 500±25 nm, resulting in simultaneous and independent readings of all 384 wells. Images were collected at each temperature, and the sum of the pixel intensity in a given area of the assay plate was recorded versus temperature. Reference wells contained RORγt without compounds, and the assay conditions were as follows: • 0.065 mg/mL RORγt • 60 μM 1,8-ANS • 100 mM Hepes, pH 7.0 • 10 mM NaCl • 2.5 mM GSH • 0.002% Tween-20
Project compounds were arranged in a pre-dosed mother plate (Greiner Bio-one) wherein compounds are serially diluted in 100% DMSO by 1:2 from a high concentration of 10 mM over 12 columns within a series (column 12 is a reference well containing DMSO, no compound). The compounds were robotically dispensed directly into assay plates (1×=46 nL) using a Hummingbird capillary liquid handling instrument (Digilab). Following compound dispense, protein and dye in buffer was added to achieve the final assay volume of 3 μL, followed by 1 μL of silicone oil.

Chain of human RORγt LBD (P51449 258-518): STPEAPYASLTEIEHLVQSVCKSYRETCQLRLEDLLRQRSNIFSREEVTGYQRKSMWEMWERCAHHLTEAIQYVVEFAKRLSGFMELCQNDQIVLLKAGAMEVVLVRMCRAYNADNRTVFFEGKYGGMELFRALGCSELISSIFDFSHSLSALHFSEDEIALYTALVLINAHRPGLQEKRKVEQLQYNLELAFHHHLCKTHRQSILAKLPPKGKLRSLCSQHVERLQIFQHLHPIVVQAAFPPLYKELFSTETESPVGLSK
Chain of human RORγt ligand binding domain (RORγt LBD) (P51449 other isoform, or with tags, fused parts or gaps): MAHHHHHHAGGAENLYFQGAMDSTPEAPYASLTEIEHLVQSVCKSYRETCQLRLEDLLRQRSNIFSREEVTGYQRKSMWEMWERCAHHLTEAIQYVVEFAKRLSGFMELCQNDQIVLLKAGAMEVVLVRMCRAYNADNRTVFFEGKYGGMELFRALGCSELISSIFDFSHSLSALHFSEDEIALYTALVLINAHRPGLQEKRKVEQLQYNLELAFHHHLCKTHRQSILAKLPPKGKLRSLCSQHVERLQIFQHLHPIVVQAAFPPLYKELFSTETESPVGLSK

CCc1nc2ccc(C(O)(c3cnnn3C)C3CN(C(C)=O)C3)cc2c(Cl)c1Cc1ccc(C(F)(F)F)cc1 (stereo not drawn) [Example 90A, 1-(3-((4-Chloro-2-ethyl-3-(4-(trifluoromethyl)benzyl)quinolin-6-yl)(hydroxy)(1-methyl-1H-1,2,3-triazol-5-yl)methyl)azetidin-1-yl)ethanone]
IC50 (human RORγt LBD; HEK293T cells): 0.011 µM | inhibition at 6 µM (human RORγt LBD): 98% | Kd [1]: 0.00044 µM

COc1nc2ccc(C(O)(c3ccc(C#N)cc3)c3cncn3C)cc2c(C#N)c1Cc1ccc(-n2cccn2)cc1 (single isomer, unassigned) [Example 76B, 3-(4-(1H-Pyrazol-1-yl)benzyl)-6-((4-cyanophenyl)(hydroxy)(1-methyl-1H-imidazol-5-yl)methyl)-2-methoxyquinoline-4-carbonitrile]
IC50 (human RORγt LBD; HEK293T cells): 0.12 µM | inhibition at 6 µM (human RORγt LBD): 102% | Kd [1]: 0.076 µM

COc1nc2ccc(C(O)(c3cnnn3C)c3cnc(C)n3C)cc2c(C#N)c1Cc1ccc(C(F)(F)F)cc1 (stereo not drawn) [Example 81A, 6-((1,2-Dimethyl-1H-imidazol-5-yl)(hydroxy)(1-methyl-1H-1,2,3-triazol-5-yl)methyl)-2-methoxy-3-(4-(trifluoromethyl)benzyl)quinoline-4-carbonitrile]
IC50 (human RORγt LBD; HEK293T cells): 0.0021 µM | inhibition at 6 µM (human RORγt LBD): 104% | Kd [1]: 0.00012 µM

CCN(CC)c1nc2ccc(C(O)(c3ccc(C(F)(F)F)nc3)c3cncn3C)cc2c(C#N)c1Cc1ccc(-n2cccn2)cc1 (single isomer, unassigned) [Example 74C, 3-(4-(1H-Pyrazol-1-yl)benzyl)-2-(diethylamino)-6-(hydroxy(1-methyl-1H-imidazol-5-yl)(6-(trifluoromethyl)pyridin-3-yl)methyl)quinoline-4-carbonitrile]
RORγt reporter Assay, % inhibition @ 6 μM (human RORγt LBD; HEK293T cells, 6 μM): 90% | IC50 (human RORγt LBD; HEK293T cells): 0.93 µM | Kd [1]: 21 µM

OC(c1cccnc1)(c1cccc(Cl)c1)c1ccc2nc(Cl)c(Cc3cccc(Cl)c3)c(Cl)c2c1 (stereo not drawn) [Example 4, (3-Chlorophenyl)-(2,4-dichloro-3-(3-chlorobenzyl)quinolin-6-yl)-(pyridin-3-yl)methanol.TFA]
IC50 (human RORγt LBD; HEK293T cells): ~6 µM | inhibition at 6 µM (human RORγt LBD): 46% | Kd [1]: 0.0077 µM

Cn1cncc1C(O)(c1ccc(C(F)(F)F)nc1)c1ccc2nc(N3CCC3)c(Cc3ccc(-n4cccn4)cc3)c(Cl)c2c1 (stereo not drawn) [Example 68A, (3-(4-(1H-Pyrazol-1-yl)benzyl)-2-(azetidin-1-yl)-4-chloroquinolin-6-yl)(1-methyl-1H-imidazol-5-yl)(6-(trifluoromethyl)pyridin-3-yl)methanol]
IC50 (human RORγt LBD; HEK293T cells): 0.21 µM | inhibition at 6 µM (human RORγt LBD): 99% | Kd [1]: 0.0083 µM

COc1nc2ccc(C(O)(c3ccc(N(C)C)cc3)c3cccnc3)cc2c(Cl)c1Cc1ccc(-n2cccn2)cc1 (stereo not drawn) [Example 42, (3-(4-(1H-Pyrazol-1-yl)benzyl)-4-chloro-2-methoxyquinolin-6-yl)(4-(dimethylamino)phenyl)(pyridin-3-yl)methanol]
IC50 (human RORγt LBD; HEK293T cells): 0.18 µM | inhibition at 6 µM (human RORγt LBD): 96% | Kd [1]: 0.36 µM

OC(c1cccnc1)(c1cccc(Cl)c1)c1ccc2nc(Cl)c(Cc3ccc(F)cc3)c(Cl)c2c1 (stereo not drawn) [Example 3, (3-Chlorophenyl)-(2,4-dichloro-3-(4-fluorobenzyl)quinolin-6-yl)-(pyridin-3-yl)methanol.TFA]
IC50 (human RORγt LBD; HEK293T cells): > 6 µM | inhibition at 6 µM (human RORγt LBD): 30%

COc1nc2ccc(C(O)(c3ccc(C)nc3C)c3cnnn3C)cc2c(C#N)c1Cc1ccc(C(F)(F)F)cc1 (single isomer, unassigned) [Example 78B, 6-((2,6-Dimethylpyridin-3-yl)(hydroxy)(1-methyl-1H-1,2,3-triazol-5-yl)methyl)-2-methoxy-3-(4-(trifluoromethyl)benzyl)quinoline-4-carbonitrile]
inhibition at 6 µM (human RORγt LBD): 94%

COc1ccc(Cc2cc3cc(C(O)(c4cncs4)c4cncn4C)ccc3nc2Cl)cc1 (stereo not drawn) [Example 52, (2-chloro-3-(4-methoxybenzyl)quinolin-6-yl)(1-methyl-1H-imidazol-5-yl)(thiazol-5-yl)methanol.TFA]
IC50 (human RORγt LBD; HEK293T cells): > 6 µM | inhibition at 6 µM (human RORγt LBD): 34%

COc1ccc(C(O)(c2ccc3nc(Cl)c(Cc4ccc(-n5cccn5)cc4)c(Cl)c3c2)c2cncn2C)cn1 (stereo not drawn) [Example 21, (3-(4-(1H-Pyrazol-1-yl)benzyl)-2,4-dichloroquinolin-6-yl)(6-methoxypyridin-3-yl)(1-methyl-1H-imidazol-5-yl)methanol.TFA]
inhibition at 6 µM (human RORγt LBD): 103%

COc1nc2ccc(C(O)(c3ccc(Cl)cc3)c3cncn3C)cc2c(Cl)c1Cc1ccc(-n2cncn2)cc1 (stereo not drawn) [Example 64A, (3-(4-(1H-1,2,4-Triazol-1-yl)benzyl)-4-chloro-2-methoxyquinolin-6-yl)(4-chlorophenyl)(1-methyl-1H-imidazol-5-yl)methanol]
inhibition at 6 µM (human RORγt LBD): 99%

COc1nc2ccc(C(O)(c3ccc(Cl)cc3)c3cncn3C)cc2c(Cl)c1Cc1ccc(-n2cncn2)cc1 (single isomer, unassigned) [Example 64B, (3-(4-(1H-1,2,4-triazol-1-yl)benzyl)-4-chloro-2-methoxyquinolin-6-yl)(4-chlorophenyl)(1-methyl-1H-imidazol-5-yl)methanol]
inhibition at 6 µM (human RORγt LBD): 101%

CCc1nc2ccc(C(O)(c3cnnn3C)C3CN(S(C)(=O)=O)C3)cc2c(Cl)c1Cc1ccc(C(F)(F)F)cc1 (stereo not drawn) [Example 91A, (4-Chloro-2-ethyl-3-(4-(trifluoromethyl)benzyl)quinolin-6-yl)(1-methyl-1H-1,2,3-triazol-5-yl)(1-(methylsulfonyl)azetidin-3-yl)methanol]
inhibition at 6 µM (human RORγt LBD): 100%

COc1nc2ccc(C(O)(c3cnnn3C)c3cnc(C)n3C)cc2c(Cl)c1Cc1ccc(C(F)(F)F)cc1 (stereo not drawn) [Example 80A, (4-Chloro-2-methoxy-3-(4-(trifluoromethyl)benzyl)quinolin-6-yl)(1,2-dimethyl-1H-imidazol-5-yl)(1-methyl-1H-1,2,3-triazol-5-yl)methanol]
inhibition at 6 µM (human RORγt LBD): 103%

Cn1cncc1C(O)(c1ccc(Cl)cc1)c1ccc2nc(C#N)c(Cc3ccc(-n4cccn4)cc3)c(C#N)c2c1 (stereo not drawn) [Example 71A, 3-(4-(1H-Pyrazol-1-yl)benzyl)-6-((4-chlorophenyl)(hydroxy)(1-methyl-1H-imidazol-5-yl)methyl)quinoline-2,4-dicarbonitrile]
IC50 (human RORγt LBD; HEK293T cells): 0.11 µM | inhibition at 6 µM (human RORγt LBD): 97%

COc1nc2ccc(C(O)(c3ccc(C)nc3C)c3cnnn3C)cc2c(Cl)c1Cc1ccc(C(F)(F)F)cc1 (stereo not drawn) [Example 77A, (4-Chloro-2-methoxy-3-(4-(trifluoromethyl)benzyl)quinolin-6-yl)(2,6-dimethylpyridin-3-yl)(1-methyl-1H-1,2,3-triazol-5-yl)methanol]
inhibition at 6 µM (human RORγt LBD): 103%

COc1nc2ccc(C(O)(c3ccc(C)nc3C)c3cnnn3C)cc2c(C#N)c1Cc1ccc(C(F)(F)F)cc1 (stereo not drawn) [Example 78A, 6-((2,6-Dimethylpyridin-3-yl)(hydroxy)(1-methyl-1H-1,2,3-triazol-5-yl)methyl)-2-methoxy-3-(4-(trifluoromethyl)benzyl)quinoline-4-carbonitrile]
inhibition at 6 µM (human RORγt LBD): 97%

COc1nc2ccc(C(O)(c3ccc(C(F)(F)F)nc3)c3cncn3C)cc2c(Cl)c1Cc1ccc(S(C)(=O)=O)cc1 (stereo not drawn) [Example 53, (4-Chloro-2-methoxy-3-(4-(methylsulfonyl)benzyl)quinolin-6-yl)(1-methyl-1H-imidazol-5-yl)(6-(trifluoromethyl)pyridin-3-yl)methanol]
IC50 (human RORγt LBD; HEK293T cells): 0.046 µM | inhibition at 6 µM (human RORγt LBD): 101%

OC(c1cccnc1)(c1cccc(Cl)c1)c1ccc2nc(Cl)c(Cc3ccc(Cl)cc3)c(Cl)c2c1 (stereo not drawn) [Example 2, (3-Chlorophenyl)-(2,4-dichloro-3-(4-chlorobenzyl)quinolin-6-yl)-(pyridin-3-yl)methanol.TFA]
IC50 (human RORγt LBD; HEK293T cells): 0.05 µM | inhibition at 6 µM (human RORγt LBD): 70%
